What was measured:
DOHH2 cells = test: Cell proliferation assay (MTS), DOHH2 cells, 120 h; format: cell-based; details: Homo sapiens, DOHH-2, 120 h
Procedure, shortened: (§1)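 Cells in RPMI-1640 with 10% FBS were seeded at 5000/well, left overnight at 37° C., 5% CO2, then exposed to compound at 10000 down to 1.5 nM (nine concentrations) for 72 h (RS4;11) or 120 h (DOHH2). Viability was read by MTS, 2 h, absorbance at 490/650 nm; IC50 calculated.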

RS4;11 cells = test: Cell proliferation assay (MTS), RS4;11 cells, 72 h; format: cell-based; details: Homo sapiens, RS4-11, 72 h
Procedure, shortened: as §1

Compound	IC50 (DOHH2 cells) [nM]	IC50 (RS4;11 cells) [nM]
C[C@@H]1CN(CC[C@H]2COc3cc(S(=O)(=O)NC(=O)c4ccc(N5CCN(CC6=C(c7ccc(Cl)cc7)CC(C)(C)CC6)CC5)cc4Oc4cnc5[nH]ccc5c4)cc([N+](=O)[O-])c3N2)CCN1C [Example 2-46, 2-((1H-pyrrolo[2,3-b]pyridin-5-yl)oxy)-4-(4-((4′-chloro-5,5-dimethyl-3,4,5,6-tetrahydro-[1,1′-biphenyl]-2-yl)methyl)piperazin-1-yl)-N-(((S)-3-(2-((R)-3,4-dimethylpiperazin-1-yl)ethyl)-5-nitro-3,4-dihydro-2H-benzo [b][1,4]oxazin-7-yl)sulfonyl)benzamide]	7	1
C[C@H]1CN(CC[C@H]2COc3cc(S(=O)(=O)NC(=O)c4ccc(N5CCN(CC6=C(c7ccc(Cl)cc7)CC(C)(C)CC6)CC5)cc4Oc4cnc5[nH]ccc5c4)cc([N+](=O)[O-])c3N2)CCN1C [Example 2-47, 2-((1H-pyrrolo[2,3-b]pyridin-5-yl)oxy)-4-(4-((4′-chloro-5,5-dimethyl-3,4,5,6-tetrahydro-[1,1′-biphenyl]-2-yl)methyl)piperazin-1-yl)-N-(((S)-3-(2-((S)-3,4-dimethylpiperazin-1-yl)ethyl)-5-nitro-3,4-dihydro-2H-benzo [b][1,4]oxazin-7-yl)sulfonyl)benzamide]	12	22
CC1(C)CCC(CN2CCN(c3ccc(C(=O)NS(=O)(=O)c4cc5c(c([N+](=O)[O-])c4)N[C@@H](CCN4CCN(C6COC6)CC4)CO5)c(Oc4cnc5[nH]ccc5c4)c3)CC2)=C(c2ccc(Cl)cc2)C1 [Example 2-48, (S)-2-((1H-pyrrolo[2,3-b]pyridin-5-yl)oxy)-4-(4-((4′-chloro-5,5-dimethyl-3,4,5,6-tetra-hydro-[1,1′-biphenyl]-2-yl)methyl)piperazin-1-yl)-N-((5-nitro-3-(2-(4-(oxetan-3-yl)piper-azin-1-yl)ethyl)-3,4-dihydro-2H-benzo [b][1,4]oxazin-7-yl)sulfonyl)benzamide]	9	14
C[C@@H]1CN(CC[C@H]2COc3cc(S(=O)(=O)NC(=O)c4ccc(N5CCN(CC6=C(c7ccc(Cl)cc7)CC(C)(C)CC6)CC5)cc4Oc4cnc5[nH]ccc5c4)cc([N+](=O)[O-])c3N2)CCN1C1COC1 [Example 2-49, 2-((1H-pyrrolo[2,3-b]pyridin-5-yl)oxy)-4-(4-((4′-chloro-5,5-dimethyl-3,4,5,6-tetrahydro-[1,1′-biphenyl]-2-yl)methyl)piperazin-1-yl)-N-(((S)-3-(2-((R)-3-methyl-4-(oxetan-3-yl)piperazin-1-yl)ethyl)-5-nitro-3,4-dihydro-2H-benzo[b][1,4]oxazin-7-yl)sulfonyl) benzamide]	12	16
C[C@H]1CN(CC[C@H]2COc3cc(S(=O)(=O)NC(=O)c4ccc(N5CCN(CC6=C(c7ccc(Cl)cc7)CC(C)(C)CC6)CC5)cc4Oc4cnc5[nH]ccc5c4)cc([N+](=O)[O-])c3N2)CCN1C1COC1 [Example 2-50]	22	9
C[C@H]1CN(CC[C@H]2COc3cc(S(=O)(=O)NC(=O)c4ccc(N5CCN(CC6=C(c7ccc(Cl)cc7)CC(C)(C)CC6)CC5)cc4Oc4cnc5[nH]ccc5c4)cc([N+](=O)[O-])c3N2)CCO1 [Example 2-51]	13	10
C[C@@H]1CN(CC[C@H]2COc3cc(S(=O)(=O)NC(=O)c4ccc(N5CCN(CC6=C(c7ccc(Cl)cc7)CC(C)(C)CC6)CC5)cc4Oc4cnc5[nH]ccc5c4)cc([N+](=O)[O-])c3N2)CCO1 [Example 2-52, 2-((1H-pyrrolo[2,3-b]pyridin-5-yl)oxy)-4-(4-((4′-chloro-5,5-dimethyl-3,4,5,6-tetrahydro-[1,1′-biphenyl]-2-yl)methyl)piperazin-1-yl)-N-(((S)-3-(2-((R)-2-methylmorpholino)ethyl)-5-nitro-3,4-dihydro-2H-benzo[b][1,4]oxazin-7-yl)sulfonyl)benzamide]	31	25
CC(=O)NC[C@H]1COc2cc(S(=O)(=O)NC(=O)c3ccc(N4CCN(CC5=C(c6ccc(Cl)cc6)CC(C)(C)CC5)CC4)cc3Oc3cnc4[nH]ccc4c3)cc([N+](=O)[O-])c2N1 [Example 2-53, (S)-2-((1H-pyrrolo[2,3-b]pyridin-5-yl)oxy)-N-((3-(acetamidomethyl)-5-nitro-3,4-dihydro-2H-benzo[b][1,4]oxazin-7-yl)sulfonyl)-4-(4-((4′-chloro-5,5-dimethyl-3,4,5,6-tetra-hydro-[1,1′-biphenyl]-2-yl)methyl)piperazin-1-yl)benzamide]	543	53
CC1(C)CCC(CN2CCN(c3ccc(C(=O)NS(=O)(=O)c4cc5c(c([N+](=O)[O-])c4)N[C@@H](CNC(=O)C4CCOCC4)CO5)c(Oc4cnc5[nH]ccc5c4)c3)CC2)=C(c2ccc(Cl)cc2)C1 [Example 2-54, (S)-N-((7-(N-(2-((1H-pyrrolo[2,3-b]pyridin-5-yl)oxy)-4-(4-((4′-chloro-5,5-dimethyl-3,4,5,6-tetrahydro-[1,1′-biphenyl]-2-yl)methyl)piperazin-1-yl)benzoyl)sulfamoyl)-5-nitro-3,4-dihydro-2H-benzo[b][1,4]oxa-zin-3-yl)meth-yl)tetrahydro-2H-pyran-4-carboxamide]	134	61
CC1(C)CCC(CN2CCN(c3ccc(C(=O)NS(=O)(=O)c4cc5c(c([N+](=O)[O-])c4)N[C@@H](CCNC(=O)C4CCOCC4)CO5)c(Oc4cnc5[nH]ccc5c4)c3)CC2)=C(c2ccc(Cl)cc2)C1 [Example 2-56, (S)-N-(2-(7-(N-(2-((1H-pyrrolo[2,3-b]pyridin-5-yl)oxy)-4-(4-((4′-chloro-5,5-dimethyl-3,4,5,6-tetrahydro-[1,1′-biphenyl]-2-yl)meth-yl)piperazin-1-yl)benzoyl)sulfamoyl)-5-nitro-3,4-dihydro-2H-benzo[b][1,4]oxazin-3-yl)ethyl)tetrahydro-2H-pyran-4-carboxamide]	571	41
COC(=O)NC[C@H]1COc2cc(S(=O)(=O)NC(=O)c3ccc(N4CCN(CC5=C(c6ccc(Cl)cc6)CC(C)(C)CC5)CC4)cc3Oc3cnc4[nH]ccc4c3)cc([N+](=O)[O-])c2N1 [Example 2-60, methyl (S)-((7-(N-(2-((1H-pyrrolo[2,3-b]pyridin-5-yl)oxy)-4-(4-((4′-chloro-5,5-dimethyl-3,4,5,6-tetrahydro-[1,1′-biphenyl]-2-yl)methyl)piperazin-1-yl)benzoyl)sulfamoyl)-5-nitro-3,4-dihydro-2H-benzo[b][1,4]oxazin-3-yl)meth-yl)carbamate]	82	1
CC1(C)CCC(CN2CCN(c3ccc(C(=O)NS(=O)(=O)c4cc5c(c([N+](=O)[O-])c4)N[C@@H](CNC(=O)OC4CCOCC4)CO5)c(Oc4cnc5[nH]ccc5c4)c3)CC2)=C(c2ccc(Cl)cc2)C1 [Example 2-61, tetrahydro-2H-pyran-4-yl (S)-((7-(N-(2-((1H-pyrrolo[2,3-b]pyridin-5-yl)oxy)-4-(4-((4′-chloro-5,5-dimethyl-3,4,5,6-tetrahydro-[1,1′-biphenyl]-2-yl)methyl)piperazin-1-yl)benzoyl)sulfamoyl)-5-nitro-3,4-dihydro-2H-benzo[b][1,4]oxazin-3-yl)methyl)carbamate]	444	48
COC(=O)NCC[C@@H]1COc2cc(S(=O)(=O)NC(=O)c3ccc(N4CCN(CC5=C(c6ccc(Cl)cc6)CC(C)(C)CC5)CC4)cc3Oc3cnc4[nH]ccc4c3)cc([N+](=O)[O-])c2N1 [Example 2-63, methyl (R)-(2-(7-(N-(2-((1H-pyrrolo[2,3-b]pyridin-5-yl)oxy)-4-(4-((4′-chloro-5,5-dimethyl-3,4,5,6-tetrahydro-[1,1′-biphenyl]-2-yl)methyl)piperazin-1-yl)benzoyl)sulfamoyl)-5-nitro-3,4-dihydro-2H-benzo[b][1,4]oxazin-3-yl)ethyl)carbamate]	64	12
CC1(C)CCC(CN2CCN(c3ccc(C(=O)NS(=O)(=O)c4cc5c(c([N+](=O)[O-])c4)N[C@H](CCS(C)(=O)=O)CO5)c(Oc4cnc5[nH]ccc5c4)c3)CC2)=C(c2ccc(Cl)cc2)C1 [Example 2-64, (R)-2-((1H-pyrrolo[2,3-b]pyriidn-5-yl)oxy)-4-(4-((4′-chloro-5,5-dimethyl-3,4,5,6-tetra-hydro-[1,1′-biphenyl]-2-yl)methyl)piperazin-1-yl)-N-((3-(2-(methylsulfonyl)ethyl)-5-nitro-3,4-dihydro-2H-benzo[b][1,4]oxazin-7-yl)sulfonyl)benzamide]	70	25
COCC[C@@H]1COc2cc(S(=O)(=O)NC(=O)c3ccc(N4CCN(CC5=C(c6ccc(Cl)cc6)CC(C)(C)CC5)CC4)cc3Oc3cnc4[nH]ccc4c3)cc([N+](=O)[O-])c2N1 [Example 2-65, (R)-2-((1H-pyrrolo[2,3-b]pyridin-5-yl)oxy)-4-(4-((4′-chloro-5,5-dimethyl-3,4,5,6-tetra-hydro-[1,1′-biphenyl]-2-yl)methyl)piperazin-1-yl)-N-((3-(2-methoxyethyl)-5-nitro-3,4-dihydro-2H-benzo[b][1,4]oxazin-7-yl)sulfonyl)benzamide]	14	20
CC1(C)CCC(CN2CCN(c3ccc(C(=O)NS(=O)(=O)c4cc5c(c([N+](=O)[O-])c4)N[C@@H](CNS(C)(=O)=O)CO5)c(Oc4cnc5[nH]ccc5c4)c3)CC2)=C(c2ccc(Cl)cc2)C1 [Example 2-66, (S)-2-((1H-pyrrolo[2,3-b]pyridin-5-yl)oxy)-4-(4-((4′-chloro-5,5-dimethyl-3,4,5,6-tetra-hydro-[1,1′-biphenyl]-2-yl)methyl)piperazin-1-yl)-N-((3-(methylsulfonamidomethyl)-5-nitro-3,4-dihydro-2H-benzo[b][1,4]oxazin-7-yl)sulfonyl)benzamide]	13	18
